Laboratory results as given in patent US5049685A, “Nuclear substituted salicylic acids and their salts” (Sanko Kaihatsu Kagaku Kenkyusho, priority 1988, dated 1991).

Experiments:
[1] = Solubility in water (four-stage evaluation); format: physicochemical
[2] = Solubility in toluene (four-stage evaluation); format: physicochemical

Row | Compound | solubility [1] [mg/mL] | Solubility in Toluene [2] | Solubility in Water [1]
1 | Cc1c(C(C)(C)C)cc(C(C)(C)c2ccccc2)c(O)c1C(=O)O [5-3 Sodium] | > 500 | – | –
2 | Cc1cc(C(C)(C)c2ccccc2)c(C)c(C(=O)O)c1O [11-2 Sodium] | > 500 | – | –
3 | Cc1c(C(C)(C)C)cc(C(C)(C)CC(C)(C)C)c(O)c1C(=O)O [4-3 Morpholine] | – | .largecircle. (solubility =not less than 20% to less than 50%) | .circleincircle. (solubility =not less than 50%)
4 | Cc1c(C(C)(C)C)cc(C(C)(C)CC(C)(C)C)c(O)c1C(=O)O [4-3 Sodium] | > 500 | – | –
5 | Cc1c(C(C)(C)C)cc(C(C)(C)C)c(O)c1C(=O)O [1 Free Acid] | – | .largecircle. (solubility =not less than 20% to less than 50%) | –
6 | Cc1c(C(C)(C)c2ccccc2)cc(C(C)(C)C)c(O)c1C(=O)O [2-2 Free Acid] | – | .circleincircle. (solubility =not less than 50%) | –
7 | Cc1c(C(C)(C)C)cc(C(C)(C)C)c(O)c1C(=O)O [1 Sodium] | > 500 | – | –
8 | Cc1c(C(C)(C)c2ccccc2)cc(C(C)(C)C)c(O)c1C(=O)O [2-2 Sodium] | > 500 | – | –
9 | C1COCCN1 [1 Morpholine] | > 500 | .largecircle. (solubility =not less than 20% to less than 50%) | –
10 | Cc1c(C(C)(C)C)cc(C(C)(C)c2ccccc2)c(O)c1C(=O)O [5-3 Free Acid] | – | .circleincircle. (solubility =not less than 50%) | –
11 | Cc1c(C(C)(C)c2ccccc2)cc(C(C)C)c(O)c1C(=O)O [12-2 Free Acid] | – | .circleincircle. (solubility =not less than 50%) | –
12 | Cc1cc(C(C)(C)c2ccccc2)cc(C(=O)O)c1O [(2) Sodium, 3-methyl-5-(α, α-dimethylbenzyl)salicylic acid, reference compound] | 200 to 500 | – | –
13 | CCC(C)(C)c1cc(C(C)(C)CC)c(O)c(C(=O)O)c1C [3-2 Sodium] | > 500 | – | –
14 | Cc1cc(C(C)(C)c2ccccc2)cc(C(=O)O)c1O [(2) Free Acid, 3-methyl-5-(α,α-dimethyllbenzyl)salicylic acid, reference compound] | – | Δ (solubility =not less than 5% to less than 20%) | –
15 | CCC(C)(C)c1cc(C(C)(C)CC)c(O)c(C(=O)O)c1C [3-2 Free Acid] | – | .largecircle. (solubility =not less than 20% to less than 50%) | –
16 | Cc1c(C(C)(C)C)cc(C(C)(C)CC(C)(C)C)c(O)c1C(=O)O [4-3 Free Acid] | – | .circleincircle. (solubility =not less than 50%) | –
17 | Cc1cc(C(C)(C)c2ccccc2)c(C)c(C(=O)O)c1O [11-2 Free Acid] | – | .largecircle. (solubility =not less than 20% to less than 50%) | –
18 | Cc1c(C(C)(C)c2ccccc2)cc(C(C)(C)C)c(O)c1C(=O)O [2-2 Morpholine] | – | .largecircle. (solubility =not less than 20% to less than 50%) | .circleincircle. (solubility =not less than 50%)
19 | Cc1c(C(C)(C)c2ccccc2)cc(C(C)C)c(O)c1C(=O)O [12-2 Sodium] | > 500 | – | –
20 | Cc1c(C(C)(C)C)cc(C(C)(C)c2ccccc2)c(O)c1C(=O)O [5-3 Morpholine] | – | .largecircle. (solubility =not less than 20% to less than 50%) | .circleincircle. (solubility =not less than 50%)
